Drawing on ChEMBL document CHEMBL4052809, “Development of a highly reliable assay for ubiquitin-specific protease 2 inhibitors” (Bioorg Med Chem Lett, 2017), this text covers IC50 and inhibition for one compound.

Experiment [1] addresses T1, Ubiquitin carboxyl-terminal hydrolase 2 (Homo sapiens, UniProt O75604).
T1 sequence (O75604 whole entry): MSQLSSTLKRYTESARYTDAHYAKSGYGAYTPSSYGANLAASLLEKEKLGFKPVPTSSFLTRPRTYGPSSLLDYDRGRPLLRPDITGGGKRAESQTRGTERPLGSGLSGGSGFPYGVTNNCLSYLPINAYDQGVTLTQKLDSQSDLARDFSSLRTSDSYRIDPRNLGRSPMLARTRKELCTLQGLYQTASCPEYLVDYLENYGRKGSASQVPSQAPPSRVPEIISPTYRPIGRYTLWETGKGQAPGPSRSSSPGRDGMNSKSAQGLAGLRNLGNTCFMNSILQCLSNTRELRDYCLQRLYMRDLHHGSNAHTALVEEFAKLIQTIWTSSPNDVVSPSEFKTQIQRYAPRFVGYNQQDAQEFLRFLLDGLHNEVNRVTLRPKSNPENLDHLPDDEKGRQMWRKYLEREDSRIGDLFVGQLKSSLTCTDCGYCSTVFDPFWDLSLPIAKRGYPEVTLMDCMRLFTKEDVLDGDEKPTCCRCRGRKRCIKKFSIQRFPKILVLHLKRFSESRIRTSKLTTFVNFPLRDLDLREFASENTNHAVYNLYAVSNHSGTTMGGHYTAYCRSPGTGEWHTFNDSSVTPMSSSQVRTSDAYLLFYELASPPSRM
As to the kind of experiment: Inhibition of recombinant human N-terminal His-tagged USP2 catalytic domain (258 to 605 residues) expressed in Escherichia coli BL21(DE3) using human N-terminal GST-tagged UBA52 as substrate pretreated for 10 mins followed by substrate addition after 60 mins by coomassie staining based assay.

For experiment [2], the target named is T2, Ubiquitin carboxyl-terminal hydrolase 2 (Homo sapiens) (UniProt O75604).
T2 sequence (whole entry): T1 sequence (O75604 whole entry)
As to the kind of experiment: Inhibition of recombinant human N-terminal His-tagged USP2 catalytic domain (258 to 605 residues) expressed in Escherichia coli BL21(DE3) at 100 uM using human N-terminal GST-tagged UBA52 as substrate pretreated for 10 mins followed by substrate addition after 60 mins by coomassie staining based assay.

SMILES strings stand for the structures. Active and inactive are the calls of the source. The rule behind the calls is not given here.

As usually defined, the IC50 is the concentration at which inhibition is half-maximal. As for `CC(=O)Nc1cccc(CNC(=O)c2sc3ccccc3c2OCc2ccccc2)c1`, the 50% inhibitory concentration (IC50) in experiment [1] fell in the range of 66.1 to 74.3 µM. Also, the inhibition result in experiment [2] is “Active”.
